According to patent US11435353B2, “Method of evaluating drug resistance and treatment effect” (priority 2018, dated 2022):
Entries after “also recorded” stand apart in the source; their conditions may differ. Where two headings read alike, the source gives them in different places.

Assays:
[1] = test system: ER+ breast cancer cell (ZR-75-1); experiment: MTT assay of cytotoxic effects in ZR-75-1 cells; conditions: short-term treatment, FIG. 5C/5D
Method: (§6) Cell viability was analyzed by MTT (3, [4,5-dimethylthiazol-2-yl-]diphenyltetrazolium bromide, 5 mg/ml). Cells were seeding in 96-well plates and incubated overnight, and then changed into the fresh medium containing indicated concentrations of tamoxifen for 72 h. 50 μl of MTT was added to each well and incubated for 2 h, and the purple formazan crystals were dissolved in DMSO. The absorbance was measured by a microplate reader at a wavelength of 570 nm.

p-AKT = experiment: Western blot of p-AKT; type: cell-based; conditions: left of FIG. 8K
Method: (§1) On the other hands, similar experiments above are also performed to identify the upstream modulator of TRBP.
(§2) Whole cell extracts were lysed in RIPA buffer and collected to fractionate by SDSPAGE, and then transferred onto PVDF membranes according to the manufacture's protocols (Bio-Rad). After blocking with 5% nonfat milk in TBST for 60 min, membranes were washed and incubated with primary antibodies at 4° C. overnight. Membranes were washed three times for 10 min and incubated with secondary antibodies for 60 min. Protein expressions were visualized by ECL system according to the manufacture's protocols.

TRBP protein = experiment: Cycloheximide chase, TRBP protein stability by western blot; type: cell-based
Method: (§3) Then, in order to investigate changes in TRBP protein stability, the […] of TRBP was analyzed by further treating the tamoxifen-resistant cell (MCF-7/TR) and the tamoxifen-resistant cell (MCF-7/TR1) with 50 μg/ml cycloheximide (CHX) to block de novo protein synthesis, followed by harvesting the tamoxifen-resistant cell (MCF-7/TR) and the tamoxifen-resistant cell (MCF-7/TR1) at an indicated time point to analyze the expression of TRBP in the tamoxifen-resistant cell (MCF-7/TR) and the tamoxifen-resistant cell through another western blot, wherein the degradation rates were plotted for the average±SEM of at least three independent experiments and analyzed by two-way ANOVA (*P≤0.05 and **P≤0.01).
as §2

SOX2 protein [2] = experiment: Western blot of SOX2 protein expression; type: cell-based
Method: In order to identify the downstream modulator of TRBP, the tamoxifen-sensitive cells (MCF-7) were treated with 2 μM tamoxifen for 48 hours, and then RNA of the tamoxifen-sensitive cell (MCF-7) was isolated to analyze the mRNA expression of stem cell markers by using a reverse-transcription PCR (qRT-PCR), with the aforementioned experiment being repeated at least three times, and with ATP5E being used as a positive control for tamoxifen treatment (*P<0.05) by t-test. Then, the tamoxifen-sensitive cells (MCF-7) were further collected to analyze protein expression by using a western blot. Accordingly, we determined the expression of several key factors that have been reported to modulate self-renewal and drug resistance of cancer cells, including SOX2, Nanog, OCT4, Lin28A, CCND1.
as §1, §2

TRBP = experiment: Western blot of TRBP expression after tamoxifen or 4OHT treatment; type: cell-based; conditions: 48 hours
Method: as §1, §2

SOX2 protein [3] = experiment: SOX2 protein stability; type: cell-based
SOX2 mRNA = experiment: qRT-PCR of stem cell marker mRNA (SOX2); type: cell-based; conditions: MCF-7 cells, 2 μM, 48 hours, FIG. 8A/8F
Method: (§4) Then, the tamoxifen-sensitive cells (MCF-7) were further collected to analyze protein expression by using a western blot.
After that, RNA was isolated from the tamoxifen-sensitive cell (MCF-7) to analyze the mRNA expression of SOX2 by using a reverse-transcription PCR (qRT-PCR).
(§5) Total RNA was isolated by using Trizol reagent according to the manufacturer's instructions. 200 ng of RNA was reverse transcribed to complementary DNA (cDNA) by using a reverse transcriptase enzyme, a random primer, dNTPs and an RNase inhibitor. Real-time PCR was performed by Applied Biosystem Step One Real-time PCR system (Applied Biosystems) according to manufacturer's protocols. Samples run in three independent experiments and GAPDH or α-tubulin were used as an internal control to normalize the target genes.

[4] = test system: ER+ breast cancer cell (ZR-75-1)
Method: as §6

cyclin D1 = experiment: qRT-PCR and western blot of cyclin D1; type: cell-based; conditions: MCF-7 cells, 2 μM, 48 hours, FIG. 8A/8B
Method: as §4, §2, §5

TRBP mRNA = experiment: qRT-PCR of TRBP mRNA level; type: cell-based; conditions: FIG. 7A
Method: as §3, §5

Merlin = experiment: Western blot of Merlin expression after tamoxifen treatment; type: cell-based; conditions: increasing concentrations, 48 hours
Method: as §2

[5] = test system: tamoxifen-resistant cell (MCF-7/TR)
Method: as §6

| Molecule | cytotoxic effects (MTT) [1] | p-AKT level after tamoxifen treatment (p-AKT) | degradation of TRBP protein (TRBP protein; tamoxifen-treated vs untreated MCF-7, 50 μg/ml cycloheximide, FIG. 7B) | degradation of TRBP protein (TRBP protein; tamoxifen-treated vs untreated MCF-7/TR1, 50 μg/ml cycloheximide, FIG. 7C) | expression of SOX2 protein (SOX2 protein [2]; MCF-7 cells, 2 μM, 48 hours, FIG. 8B) | SOX2 level after tamoxifen treatment (SOX2 protein [2]; right of FIG. 8K) | TRBP expression (TRBP; ER- Hs578T cells, FIG. 5E) | TRBP expression (TRBP; ER- MDA-MB-231 cells, FIG. 5E) | TRBP expression (TRBP; ER- SKBR3 cells, FIG. 5E) | TRBP expression (TRBP; MCF-7/TR cells, increasing concentrations, FIG. 5A/5B) | SOX2 protein degradation (SOX2 protein [3]; tamoxifen-treated vs untreated MCF-7, FIG. 8G) | SOX2 protein degradation (SOX2 protein [3]; tamoxifen-treated vs untreated MCF-7/TR, FIG. 8H) | expression of SOX2 mRNA (SOX2 mRNA) | cytotoxic effects (MTT) [4] | cyclin D1 expression (cyclin D1) | TRBP mRNA level (TRBP mRNA; MCF-7/TR1 cells) | TRBP mRNA level (TRBP mRNA; MCF-7/TR cells pretreated with 2 μM tamoxifen for 48 hours) | expression of Merlin (Merlin; MCF-7 cells, FIG. 7D) | expression of Merlin (Merlin; ZR-75-1 cells, FIG. 7E) | cytotoxic effects (MTT) [5] |
| --- | --- | --- | --- | --- | --- | --- | --- | --- | --- | --- | --- | --- | --- | --- | --- | --- | --- | --- | --- | --- |
| 4-hydroxytamoxifen | noncytotoxic |  |  |  |  |  |  |  |  |  |  |  |  |  |  |  |  |  |  |  |
| CC/C(=C(\c1ccccc1)c1ccc(OCCN(C)C)cc1)c1ccccc1 [tamoxifen] |  | elevated-AKT level | significant prolonged degradation of TRBP protein | significant prolonged degradation of TRBP protein | upregulated expression of SOX2 protein | elevated-SOX2 level | no significant induction of TRBP | no significant induction of TRBP | no significant induction of TRBP | induced the TRBP expression in a dose-dependent manner | degraded more slowly | degraded more slowly | upregulated; also recorded: enhanced SOX2 expression | noncytotoxic | reduction of cyclin D1 | not significantly changed | not significantly changed | suppressed in a dose-dependent manner | suppressed in a dose-dependent manner | without inducing any significant cytotoxic effects |
